Experimental data taken from US20220057383A1, “USE OF BIOMARKERS TO EVALUATE THE EFFICACY OF A COMPOSITION IN REDUCING THE EFFECTS OF CANCER THERAPEUTICS ON SKIN” (Johnson & Johnson Consumer Inc., priority 2019, published 2022).
Where two headings read alike, the source gives them in different places.

Legend:
[1] = system: Reconstructed Human Epidermis (RHE) tissues
[2] = system: RHE keratinocytes; assay: Transcriptomic analysis (gene expression profiling) of RHE keratinocytes treated with afatinib; type: cell-based, human; conditions: 100 nM afatinib; for number of genes down-regulated compared to control / number of genes up-regulated compared to control: cut off 50%
[3] = human, in vivo; cited from earlier work
[4] = 100 nM afatinib vs control, cut off 1.2-fold, overall

## Afatinib
[1]; 100 nM afatinib
  FOXO3 phosphorylation: decreased
  cellular senescence pathway, enrichment based on change of protein phosphorylation status: significant enrichment
[1]; 100 nM afatinib vs control, cut off 1.2-fold change (more than 20%), all time points
  number of phosphoproteins with changed phosphorylation status: 62
[1]; [4]
  number of proteins with a significant decrease of phosphorylation status: 18
  number of proteins with a significant increase of phosphorylation status: 44
[1]; 100 nM afatinib, 20 min
  number of proteins showing decreased phosphorylation compared to control: 3
  number of proteins showing increased phosphorylation compared to control: 6
[1]; 100 nM afatinib, 24 h
  PI3K-AKT pathway, Set Enrichment Analysis of phosphorylation status: significant enrichment
  number of proteins showing decreased phosphorylation compared to control: 23
  number of proteins showing increased phosphorylation compared to control: 18
  phosphorylation of MEK1 (Phospho-Ser217): not impacted
  phosphorylation of MEK1 (Phospho-Ser221): not impacted
  phosphorylation of Raf1 (Phospho-Ser338): decreased
  phosphorylation of Raf1 (Phospho-Tyr341): not impacted
  phosphorylation of eIF4E (Phospho-Ser209): decreased
[1]; 100 nM afatinib, 72 h
  number of proteins showing decreased phosphorylation compared to control: 6
  number of proteins showing increased phosphorylation compared to control: 6
[2]
  expression of genes related to inflammation (Th1 response): did not show any increase
  genes involved in innate immunity (S100 family, SPRR2B, DEFB1): negatively regulated
[2]; 6 h
  number of genes down-regulated compared to control: 170
  number of genes up-regulated compared to control: 201
[2]; 24 h
  expression of KRT2, KRT9, KRT13, KRT15 and Late Cornified Envelop genes (LCE2A, LCE1B, LCE2B, LCE1C, LCE2D): increase
  expression of metallothionein panel (MT1E, MT1L, MT1H L1, MT1X, MT1B, MT1A): decreased
  number of genes down-regulated compared to control: 335
  number of genes up-regulated compared to control: 281
[2]; 24 h and 72 h
  expression of CYP (CYP4B1, CYP3A7, CYP3A5, CYP2J2, CYP4A11, CYP1A1, CYP4F22): decreased
  expression of CYP (Inc-CYP24A1-1, CYP27A1, CYP4F12): increased
[2]; 72 h
  expression of SIRT4: increased
  expression of antioxidant enzymes PRDX2 and PRDX3: decreased
  expression of metallothionein panel (MT1E, MT1L, MT1H L1, MT1X, MT1B, MT1A): increased
[2]; cluster C2
  genes related to IL4 and IL13 signaling (Th2 response): over representation
[2]; cluster C6
  genes related to the PI3K/AKT pathway: upregulation
[2]; cut-off 50% fold-change, different time points
  number of dysregulated genes: 2,182
[2]; protein phosphorylation assay and gene expression array
  inflammasome response via TLR, NLR and IL1 families: decreased
[3]
  appearance of granulomas versus other EGFRi: more frequent appearance of granulomas
